“Also recorded” adds a separate entry of the source. Read-outs that look alike come from different tables or passages of the source.
Tests used:
[1] = molecular target: T1, cDNA-expressed recombinant CYP2D6 (Homo sapiens, UniProt P10635); assay: Apparent Ki with recombinant CYP2D6 (bufuralol 1'-hydroxylation; Dixon plots, SNLR); format: in vitro ADME; details: for Ki: recombinant CYP2D6
T1 construct: purchased Gentest Corp. (Woburn, Mass.); host or cells: insect cells (microsomal preparation)
Method: If inhibition was detected, the inhibitory potency was determined using recombinant CYPs. Compound 1 appeared to inhibit the activities of CYP2D6 and CYP2C19. Therefore, three concentrations of S-mephenyloin (30, 80, and 200 μM) and bufuralol (5, 10, and 40 μM), and a range of concentrations (0-200 μM) of Compound 1 were used for the construction of Dixon plots and simultaneously nonlinear regression (SNLR) analyses were performed. The incubation conditions and sample preparations were the same as previously described.
3. CYP2D6-mediated bufuralol 1′-hydroxylation (Boobis et al., Bioch. Pharmacol. 34:65-71, 1985): The HPLC system was interfaced with a SCIEX API2000 triple quadrupole mass spectrometer (PE Biosystem, Foster City, Calif.). A Sulpelco Discovery C18 column (150×2.1 mm) and isocratic mobile phase was applied. The mobile phase, 10 mM ammonium acetate-acetonitrile/60:40, was run at 0.2 mL/minute. The operation of the LC/MS/MS was controlled by use of software, MacChrom (Version 1.6). The MS/MS was operated at positive ESI with 5.5 kV ionization potential and 500° C. ion source temperature. Multiple reaction monitoring (MRM) was applied for the quantification. The MRM transition ions were m/z 278→186 for 1′-hydroxybufuralol, and m/z 266→234 for the internal standard (1S) albendazole.
(§1) Data were acquired and analyzed by ChemStation (Version 6.03, Hewlett Packard, Waldbronn, Germany) for 6-, 7-, and 10-hydroxywarfarin and 6-hydroxychlorzoxazone, and MacQuan (Version 1.6, PE Biosystem, Foster City, Calif.) for 1′-hydroxybufuralol and 4′-hydroxymephenytoin. Quantification was based on peak area ratios of metabolites over the respective IS against the respective concentration of the metabolites. The standard curves were generated by linear regression with (6-, 7-, and 10-hydroxywarfarin, 1′-hydroxybufuralol, and 4′-hydroxymephenytoin) or without (6-hydroxychlorzoxazone) a weighting factor (1/x^2). The metabolic rates were determined using Excel (Microsoft Office 97, Microsoft Corporation, Redmond, Wash.) or SigmaPlot (Version 6.00, SPSS Inc. Chicago, Ill.). […]

CYP2D6 = CYP2D6 (Homo sapiens, UniProt P10635); assay: CYP inhibition in HLM: bufuralol 1'-hydroxylation; format: in vitro ADME; set-up: tissue Gentest Corp. (Woburn, Mass.); host or cells: pooled human liver microsomes; details: in the presence of Compound 1, concentration-dependent
Sequence of CYP2D6 (P10635 whole entry): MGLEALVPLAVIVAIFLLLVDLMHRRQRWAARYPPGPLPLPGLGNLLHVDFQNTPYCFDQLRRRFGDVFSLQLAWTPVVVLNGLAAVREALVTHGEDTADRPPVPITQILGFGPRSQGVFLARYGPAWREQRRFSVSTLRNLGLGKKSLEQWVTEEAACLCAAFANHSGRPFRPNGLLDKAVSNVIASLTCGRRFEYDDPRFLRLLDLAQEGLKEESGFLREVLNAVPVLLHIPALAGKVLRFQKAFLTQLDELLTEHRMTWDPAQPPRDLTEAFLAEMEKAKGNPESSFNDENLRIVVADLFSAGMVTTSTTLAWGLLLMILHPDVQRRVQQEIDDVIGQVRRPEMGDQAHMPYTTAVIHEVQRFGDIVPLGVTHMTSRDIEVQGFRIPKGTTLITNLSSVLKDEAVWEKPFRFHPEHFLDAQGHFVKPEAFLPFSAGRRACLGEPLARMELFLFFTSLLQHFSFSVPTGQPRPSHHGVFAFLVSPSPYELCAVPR
Method: The incubations were carried out in test tubes (12.0×75 mm). The incubation mixtures (250 μL) contained 0.5 mg of HLM protein, 50 (CYP1A2 and CYP2E1) or 25 (CYP2C9, CYP2C19, CYP2D6 and CYP3A4) pmol of recombinant human CYPs, Compound 1 (10 or 50 μM), probe substrate (R—, S-warfarin, chlorzoxazone, S-mephenyloin, or bufuralol) at different concentrations, and 0.5 mg of NADPH in 50 mM Tris buffer containing 15 mM MgCl2 (pH 7.4). Compound 1 was added to the reaction mixture 5 minutes prior to the addition of the probe substrate. […]
The quantification was based on the calibration curves, and the quality control (QC) samples were applied to ensure the quality of the experiments. […]
3. […] Multiple reaction monitoring (MRM) was applied for the quantification. […]
as §1, with “The standard curves were generated by linear regression with (6-, 7-, and 10-hydroxywarfarin, 1′-hydroxybufuralol, and 4′-hydroxymephenytoin) or without (6-hydroxychlorzoxazone) a weighting factor (1/x^2).” left out

T1 sequence (P10635 whole entry): as above

Q: With `CNC(=O)Cc1ccc2ccn(C3CCN(CCc4ccccc4F)CC3)c2c1` [Compound 1, N-methyl-[1-[1-(2-fluorophenethyl)piperidine-4-yl]-1H-indol-6-yl] acetamide] as the molecule, how does the “type of inhibition of CYP2D6” value ([1]; Dixon plots and SNLR analyses) read?
A: competitive inhibitor; also recorded: primarily, if not fully, competitive

Q: What about the Ki ([1]; Dixon plots, bufuralol 5, 10, 40 μM, read-out: apparent Ki, CYP2D6, estimated by Dixon plots) of the same molecule?
A: ~20 µM

Q: What about the Ki ([1]; SNLR, competitive inhibition model, read-out: apparent Ki, CYP2D6 inhibition, determined by SNLR) of the same molecule?
A: 15 µM

Q: What about the “effect on CYP2D6-mediated bufuralol 1'-hydroxylation activity (in words)” value (CYP2D6) of the same molecule?
A: significantly reduced

Reference: patent publication US20050033056A1, “Hydroxylated indole derivatives and uses thereof” (priority 2001, published 2005)
